Test results as given in PubChem BioAssay (NCI).
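In this assay, cells in 96-well plates receive the compound at five concentrations for 48 hours. Endpoints are linearly interpolated between the surrounding concentrations. TGI: total growth inhibition.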

Experiments:
Test in all cases: NCI-60 cell line screen, 48 h
786-0 renal = tested on: 786-0 renal
A498 renal = tested on: A498 renal
ACHN renal = tested on: ACHN renal
BT-549 breast = tested on: BT-549 breast
CAKI-1 renal = tested on: CAKI-1 renal
CCRF-CEM leukemia = tested on: CCRF-CEM leukemia
COLO 205 colon = tested on: COLO 205 colon
DU-145 prostate = tested on: DU-145 prostate
EKVX NSCLC = tested on: EKVX NSCLC
HCC-2998 colon = tested on: HCC-2998 colon
HCT-116 colon = tested on: HCT-116 colon
HCT-15 colon = tested on: HCT-15 colon
HL-60(TB) leukemia = tested on: HL-60(TB) leukemia
HOP-62 NSCLC = tested on: HOP-62 NSCLC
HOP-92 NSCLC = tested on: HOP-92 NSCLC
HS 578T breast = tested on: HS 578T breast
HT29 colon = tested on: HT29 colon
IGROV1 ovarian = tested on: IGROV1 ovarian
K-562 leukemia = tested on: K-562 leukemia
KM12 colon = tested on: KM12 colon
LOX IMVI melanoma = tested on: LOX IMVI melanoma
M14 melanoma = tested on: M14 melanoma
MCF7 breast = tested on: MCF7 breast
MDA-MB-231 breast = tested on: MDA-MB-231 breast
MDA-MB-435 = tested on: MDA-MB-435
MOLT-4 leukemia = tested on: MOLT-4 leukemia
NCI-H226 lung = tested on: NCI-H226 lung
NCI-H23 lung = tested on: NCI-H23 lung
NCI-H460 lung = tested on: NCI-H460 lung
NCI/ADR-RES ovarian = tested on: NCI/ADR-RES ovarian
OVCAR-4 ovarian = tested on: OVCAR-4 ovarian
OVCAR-8 ovarian = tested on: OVCAR-8 ovarian
PC-3 prostate = tested on: PC-3 prostate
RPMI-8226 leukemia = tested on: RPMI-8226 leukemia
RXF 393 renal = tested on: RXF 393 renal
SF-268 CNS = tested on: SF-268 CNS
SF-295 CNS = tested on: SF-295 CNS
SF-539 CNS = tested on: SF-539 CNS
SK-MEL-2 melanoma = tested on: SK-MEL-2 melanoma
SK-MEL-28 melanoma = tested on: SK-MEL-28 melanoma
SK-MEL-5 melanoma = tested on: SK-MEL-5 melanoma
SK-OV-3 ovarian = tested on: SK-OV-3 ovarian
SNB-19 CNS = tested on: SNB-19 CNS
SNB-75 CNS = tested on: SNB-75 CNS
SR leukemia = tested on: SR leukemia
SW-620 colon = tested on: SW-620 colon
T-47D breast = tested on: T-47D breast
TK-10 renal = tested on: TK-10 renal
U251 CNS = tested on: U251 CNS
UACC-257 melanoma = tested on: UACC-257 melanoma
UACC-62 melanoma = tested on: UACC-62 melanoma
UO-31 renal = tested on: UO-31 renal
A549 NSCLC = tested on: A549 NSCLC
OVCAR-3 ovarian = tested on: OVCAR-3 ovarian
OVCAR-5 ovarian = tested on: OVCAR-5 ovarian
SN12C renal = tested on: SN12C renal

`CCNC(=S)Nc1c(C#N)c2n(c1C(=O)OCC)CCCCC2` was tested, and the TGI (786-0 renal) was over 100 µM, the TGI (A498 renal) was over 100 µM and the TGI (ACHN renal) was over 100 µM. It also gave a TGI (BT-549 breast) of over 100 µM, a TGI (CAKI-1 renal) of over 100 µM and a TGI (CCRF-CEM leukemia) of over 100 µM. The TGI (COLO 205 colon) was over 100 µM, the TGI (DU-145 prostate) was over 100 µM and the TGI (EKVX NSCLC) was over 100 µM. It also gave a TGI (HCC-2998 colon) of over 100 µM, a TGI (HCT-116 colon) of over 100 µM and a TGI (HCT-15 colon) of over 100 µM. It also gave a TGI (HL-60(TB) leukemia) of over 100 µM, a TGI (HOP-62 NSCLC) of over 100 µM and a TGI (HOP-92 NSCLC) of over 100 µM. For the same compound, the TGI (HS 578T breast) was over 100 µM, the TGI (HT29 colon) was over 100 µM and the TGI (IGROV1 ovarian) was over 100 µM. It also gave a TGI (K-562 leukemia) of over 100 µM, a TGI (KM12 colon) of over 100 µM and a TGI (LOX IMVI melanoma) of over 100 µM. The TGI (M14 melanoma) was over 100 µM, the TGI (MCF7 breast) was over 100 µM and the TGI (MDA-MB-231 breast) was over 100 µM. It also gave a TGI (MDA-MB-435) of over 100 µM, a TGI (MOLT-4 leukemia) of over 100 µM and a TGI (NCI-H226 lung) of over 100 µM. For the same compound, the TGI (NCI-H23 lung) was over 100 µM, the TGI (NCI-H460 lung) was over 100 µM and the TGI (NCI/ADR-RES ovarian) was over 100 µM. It also gave a TGI (OVCAR-4 ovarian) of over 100 µM, a TGI (OVCAR-8 ovarian) of over 100 µM and a TGI (PC-3 prostate) of over 100 µM. It also gave a TGI (RPMI-8226 leukemia) of over 100 µM, a TGI (RXF 393 renal) of over 100 µM and a TGI (SF-268 CNS) of over 100 µM. For the same compound, the TGI (SF-295 CNS) was over 100 µM, the TGI (SF-539 CNS) was over 100 µM and the TGI (SK-MEL-2 melanoma) was over 100 µM. It also gave a TGI (SK-MEL-28 melanoma) of over 100 µM, a TGI (SK-MEL-5 melanoma) of over 100 µM and a TGI (SK-OV-3 ovarian) of over 100 µM. It also gave a TGI (SNB-19 CNS) of over 100 µM, a TGI (SNB-75 CNS) of over 100 µM and a TGI (SR leukemia) of over 100 µM. It also gave a TGI (SW-620 colon) of over 100 µM, a TGI (T-47D breast) of over 100 µM and a TGI (TK-10 renal) of over 100 µM. The TGI (U251 CNS) was over 100 µM, the TGI (UACC-257 melanoma) was over 100 µM and the TGI (UACC-62 melanoma) was over 100 µM. For the same compound, the TGI (UO-31 renal) was over 100 µM.

In the case of `c1csc(-c2cscc2-c2cccs2)c1`, the TGI (786-0 renal) is reported as over 100 µM, the TGI (A498 renal) is reported as over 100 µM and the TGI (A549 NSCLC) is reported as over 100 µM. For the same compound, the TGI (ACHN renal) was over 100 µM, the TGI (BT-549 breast) was over 100 µM and the TGI (CAKI-1 renal) was over 100 µM. For the same compound, the TGI (CCRF-CEM leukemia) was over 100 µM, the TGI (COLO 205 colon) was over 100 µM and the TGI (DU-145 prostate) was 8.22 µM. The TGI (EKVX NSCLC) was over 100 µM, the TGI (HCC-2998 colon) was 82.6 µM and the TGI (HCT-116 colon) was over 100 µM. For the same compound, the TGI (HCT-15 colon) was over 100 µM, the TGI (HL-60(TB) leukemia) was over 100 µM and the TGI (HOP-62 NSCLC) was 93.8 µM. For the same compound, the TGI (HOP-92 NSCLC) was over 100 µM, the TGI (HS 578T breast) was over 100 µM and the TGI (HT29 colon) was over 100 µM. For the same compound, the TGI (IGROV1 ovarian) was over 100 µM, the TGI (K-562 leukemia) was over 100 µM and the TGI (KM12 colon) was over 100 µM. The TGI (LOX IMVI melanoma) was over 100 µM, the TGI (M14 melanoma) was over 100 µM and the TGI (MCF7 breast) was 49.5 µM. It also gave a TGI (MDA-MB-231 breast) of over 100 µM, a TGI (MDA-MB-435) of over 100 µM and a TGI (MOLT-4 leukemia) of over 100 µM. It also gave a TGI (NCI-H226 lung) of 65.4 µM, a TGI (NCI-H23 lung) of over 100 µM and a TGI (NCI-H460 lung) of over 100 µM. The TGI (NCI/ADR-RES ovarian) was over 100 µM, the TGI (OVCAR-3 ovarian) was 47.3 µM and the TGI (OVCAR-4 ovarian) was over 100 µM. It also gave a TGI (OVCAR-5 ovarian) of over 100 µM, a TGI (OVCAR-8 ovarian) of over 100 µM and a TGI (PC-3 prostate) of 39.9 µM. For the same compound, the TGI (RPMI-8226 leukemia) was over 100 µM, the TGI (RXF 393 renal) was 77.7 µM and the TGI (SF-268 CNS) was over 100 µM. It also gave a TGI (SF-295 CNS) of over 100 µM, a TGI (SF-539 CNS) of 51.4 µM and a TGI (SK-MEL-28 melanoma) of over 100 µM. For the same compound, the TGI (SK-MEL-5 melanoma) was over 100 µM, the TGI (SK-OV-3 ovarian) was over 100 µM and the TGI (SN12C renal) was over 100 µM. For the same compound, the TGI (SNB-19 CNS) was over 100 µM, the TGI (SNB-75 CNS) was over 100 µM and the TGI (SR leukemia) was over 100 µM. The TGI (SW-620 colon) was over 100 µM, the TGI (T-47D breast) was over 100 µM and the TGI (TK-10 renal) was over 100 µM. The TGI (U251 CNS) was over 100 µM, the TGI (UACC-257 melanoma) was over 100 µM and the TGI (UACC-62 melanoma) was over 100 µM. For the same compound, the TGI (UO-31 renal) was over 100 µM.
